Measurements reported in PMC8518382, “Identification of a Bromodomain‐like Region in 15‐Lipoxygenase‐1 Explains Its Nuclear Localization” (Angewandte Chemie (International Ed. in English), 2021).
“And” between values parts separate entries of the source, which are not always exact repeats. Equal entries are not always repeated.

Legend:
[1] = target: T1, 5-LOX (Homo sapiens, UniProt P09917); test: ABP-based ELISA assay with A549 cell lysate, 5-LOX; assay type: biochemical
T1 construct: the endogenous LOXs were captured on an anti‐LOX antibody precoated 96‐well plate; endogenous in cells; host or cells: A549 cell lysate
T1 sequence (P09917 1-674): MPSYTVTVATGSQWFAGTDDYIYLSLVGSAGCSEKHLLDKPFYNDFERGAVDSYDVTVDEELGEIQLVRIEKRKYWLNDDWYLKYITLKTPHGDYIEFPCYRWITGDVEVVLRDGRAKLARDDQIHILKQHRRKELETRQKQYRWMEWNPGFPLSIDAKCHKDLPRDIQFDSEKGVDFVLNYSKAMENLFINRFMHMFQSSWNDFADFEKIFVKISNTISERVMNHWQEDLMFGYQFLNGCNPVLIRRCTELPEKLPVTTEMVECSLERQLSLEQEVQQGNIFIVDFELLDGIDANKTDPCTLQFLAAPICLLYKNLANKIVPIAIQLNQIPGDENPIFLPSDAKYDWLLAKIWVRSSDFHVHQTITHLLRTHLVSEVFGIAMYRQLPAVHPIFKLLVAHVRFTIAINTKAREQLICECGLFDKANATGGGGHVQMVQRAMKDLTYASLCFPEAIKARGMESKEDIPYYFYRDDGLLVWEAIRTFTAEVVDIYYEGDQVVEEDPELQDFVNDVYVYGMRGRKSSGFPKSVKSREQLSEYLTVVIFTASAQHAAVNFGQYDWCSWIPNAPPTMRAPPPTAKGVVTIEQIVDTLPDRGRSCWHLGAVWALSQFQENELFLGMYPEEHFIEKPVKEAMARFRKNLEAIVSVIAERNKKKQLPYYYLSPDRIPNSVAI
Description: A549 cell lysate was treated with a serial dilution of the respective inhibitor. Subsequently, samples were labeled by treatment with 1 μM of Labelox B for 1 min. […] Data are mean±s.d., n≥3 independent experiments. […]
1.6. Immunoblotting Analysis […]
1.7. ABPP-based LOX inhibitor specificity validation
A549 cells were lysed by RIPA buffer supplemented with 1x PIC. After sonication and centrifugation, the supernatant was collected, and the protein concentration was determined by a Pierce BCA Protein Assay Kit (Thermo Fisher Scientific, USA). The lysates were then diluted with PBS to 300 ng/µl and stored in -20°C. To label endogenous LOXs with Labelox B under the competition condition, 180 µl diluted lysates were incubated with 200 µl different LOX inhibitor solution (in PBS) with desired concentrations for 18 min to inhibit LOXs activity. Later, 20 µl of a 20 µM Labelox B (in PBS) was added and incubated shortly for 2 min, followed by adding 50 µl of a 0.5 M EDTA to stop the labeling reaction. The reaction mixture was 450 µl in total. Inhibitors and Labelox B were absent in positive and […]
negative control, respectively. To detect the competition labeling of Labelox B among different LOXs, a high-binding 96-well plate (Greiner, #M4561) was coated with 5-LOX (#ab169755, Abcam), 12-LOX […]
(1:500 dilution in PBS) for overnight at 4°C. After washing triply with 0.05%PBST, the plate was blocked with 2% (w/v) BSA in PBST. Subsequently, 100 µl of each reaction mixture was added to the LOX-antibody-coated wells. There are four LOX antibodies used for coating. Therefore, in total, 400 µl mixture is needed for each reaction. After one hour of incubation, LOXs were pulled down by antibodies accordingly. Next, 100 µl of HRP-conjugated streptavidin (1:2000 dilution in PBS, Thermo Fisher Scientific, USA) was added to each well to detect the D04 labeled LOXs among precipitated LOXs. After washing with PBST, 100 µl of mixed HRP substrate reagent (R&D Systems, Minneapolis, USA) was added, and the colorizing reaction was stopped by adding 100 µl of 1M sulfuric acid. The absorbance at […]

[2] = tested on: LOXs; design: method as in PMID 17942241, PMID 16500106; details: redox inhibitor for LOXs; read-out: IC50 in vitro; cited from earlier work
[3] = tested on: endogenous LOXs in intact RAW 264.7 macrophage cells; test: Western blot of Labelox B labeling in intact RAW 264.7 macrophage cells; assay type: cell-based
Source text: described in the IC50 determination assay. Michaelis-Menten plots, Lineweaver-Burk plots, Km, and Vmax, are generated using GraphPad Prism 8.3.0.
1.5. Kits-Wilson kinetic analysis […]
enzyme to get a reversible complex, E*I. The dissociation constant of inhibitor (Ki) is from the formation […]
E-I. The inactivation rate constant (ki) is to describe the rate of E-I generation. To determine these inactivation parameters, Kitz-Wilson analysis was employed. The procedure has been detailed previously […]
1.6. Immunoblotting Analysis
Raw 264.7 cells were seeded in a 6-well plate at a density of 5x10^5 cells per well in high glucose DMEM media supplemented with 1% penicillin/streptomycin, 10% fetal bovine serum (FBS) (Costar Europe, Badhoevedrop, The Netherlands) at 37°C and cultured overnight. Afterward, cells were treated with the desired concentration of Labelox B at the expected time. Then, the cells were harvested and lysed with RIPA buffer containing 1X PIC. […]
Later, 30 μl of each sample was used for immunoblotting analysis. […] After washing, the blotting bands were detected with enhanced chemiluminescence (ECL) solution (GE Healthcare, Amersham, UK). […]
A549 cells were lysed by RIPA buffer supplemented with 1x PIC. After sonication and centrifugation, the supernatant was collected, and the protein concentration was determined by a Pierce BCA Protein Assay Kit (Thermo Fisher Scientific, USA). […]

Structure (SMILES)	HillSlope Value [1]	IC50 [2] [µM]	Labeling of proteins with the size of endogenous LOXs ([3]; 1 μM to 100 μM, 0.5 h to 6 h)	Cell permeability ([3]; labels effectively in half an hour at 25 μM)	IC50 ([1]; 1 μM Labelox B)
O=c1cc(-c2ccccc2)oc2cc(O)c(O)c(O)c12 [Baicalein]	-0.26	< 4	–	–	–
CCCCCC#CCC#CCOC(=O)CCCC[C@@H]1SC[C@@H]2NC(=O)N[C@@H]21 [Labelox B (3)]	–	–	dose and time‐dependent manner	sufficiently cell‐permeable	–
c1ccc2c(c1)SCc1c-2[nH]c2ccccc12 [PD146176]	-0.99	–	–	–	~17 µM and 14.8 µM
